Each structure is given as a SMILES string. Converted amounts (≈) assume the structure as drawn.

Usually MIC stands for the lowest concentration found to suppress growth.

Holding throughout (format): functional
Experiment [1] deals with Bacillus cereus. Put plainly: Antimicrobial activity against Bacillus cereus ATCC 10876 after 18 hrs by broth microdilution method. The settings on record: ATCC 10876, 18 h.
Experiment [2] concerns Staphylococcus epidermidis. Put plainly: Antimicrobial activity against Staphylococcus epidermidis ATCC 12228 after 18 hrs by broth microdilution method. The settings on record: ATCC 12228, 18 h.
The test system of experiment [3] is Micrococcus luteus. Put plainly: Antimicrobial activity against Micrococcus luteus ATCC 10240 after 18 hrs by broth microdilution method. The settings on record: ATCC 10240, 18 h. In general terms: In broth dilution the organism is exposed to a series of concentrations in liquid medium.
Experiment [4] relates to Bacillus subtilis. Put plainly: Antimicrobial activity against Bacillus subtilis ATCC […] after 18 hrs by broth microdilution method.
Experiment [5] concerns Staphylococcus aureus. Put plainly: Antimicrobial activity against Staphylococcus aureus ATCC 6538 after 18 hrs by broth microdilution method. The settings on record: ATCC 6538, 18 h.
Experiment [6] has as its system Staphylococcus aureus. Put plainly: Antimicrobial activity against Staphylococcus aureus ATCC 25923 after 18 hrs by broth microdilution method. The settings on record: ATCC 25923, 18 h.

With `O=C(NNC(=S)Nc1ccccc1)c1cccc(Cl)c1`, the MIC in experiment [1], in experiment [2], in experiment [3], in experiment [4], in experiment [5] and in experiment [6] was 125 µg/mL (≈ 409 µM) in each case.

In the case of `Cc1ccc(NC(=S)NNC(=O)c2cccc(Cl)c2)cc1`, the MIC in experiment [1] is > 1000 µg/mL; in experiment [2], > 1000 µg/mL; in experiment [3], > 1000 µg/mL; in experiment [4], > 1000 µg/mL; in experiment [5] it was 62.5 µg/mL (≈ 195 µM); in experiment [6], 62.5 µg/mL (≈ 195 µM).

Turning to `COc1ccc(NC(=S)NNC(=O)c2cccc(Cl)c2)cc1`, the minimum inhibitory concentration (MIC) in experiment [1] was found to be 125 µg/mL (≈ 372 µM); in experiment [2], 125 µg/mL (≈ 372 µM); in experiment [3], 62.5 µg/mL (≈ 186 µM); in experiment [4] it was 125 µg/mL (≈ 372 µM); in experiment [5] it was 125 µg/mL (≈ 372 µM); in experiment [6], 62.5 µg/mL (≈ 186 µM).

Regarding `O=C(NNC(=S)Nc1ccc(Br)cc1)c1cccc(Cl)c1`, the minimal inhibitory concentration (MIC) in experiment [1] was determined as 15.6 µg/mL (≈ 40.6 µM); in experiment [2], 15.6 µg/mL (≈ 40.6 µM); in experiment [3], 15.6 µg/mL (≈ 40.6 µM); in experiment [4], 31.2 µg/mL (≈ 81.2 µM); in experiment [5], 15.6 µg/mL (≈ 40.6 µM); in experiment [6], 15.6 µg/mL (≈ 40.6 µM).

In the case of `O=C(NNC(=S)Nc1ccccc1Br)c1cccc(Cl)c1`, the minimal inhibitory concentration (MIC) in experiment [1] came out at 62.5 µg/mL (≈ 162 µM); in experiment [2], 125 µg/mL (≈ 325 µM); in experiment [3], 62.5 µg/mL (≈ 162 µM); in experiment [4], 125 µg/mL (≈ 325 µM); in experiment [5], 31.2 µg/mL (≈ 81.2 µM); in experiment [6] it was 62.5 µg/mL (≈ 162 µM).

As for `O=C(NNC(=S)Nc1ccc(I)cc1)c1cccc(Cl)c1`, the MIC was 15.6 µg/mL (≈ 36.2 µM) in experiment [1]; 31.2 µg/mL (≈ 72.4 µM) in experiment [2]; 31.2 µg/mL (≈ 72.4 µM) in experiment [3]; 31.2 µg/mL (≈ 72.4 µM) in experiment [4]; 31.2 µg/mL (≈ 72.4 µM) in experiment [5]; 31.2 µg/mL (≈ 72.4 µM) in experiment [6].

In the case of `O=C(NNC(=S)Nc1ccccc1I)c1cccc(Cl)c1`, the MIC came to 31.2 µg/mL (≈ 72.4 µM) in experiment [1]; 31.2 µg/mL (≈ 72.4 µM) in experiment [2]; 31.2 µg/mL (≈ 72.4 µM) in experiment [3]; 15.6 µg/mL (≈ 36.2 µM) in experiment [4]; 31.2 µg/mL (≈ 72.4 µM) in experiment [5]; 31.2 µg/mL (≈ 72.4 µM) in experiment [6].

`O=C(NNC(=S)Nc1ccc(Cl)cc1)c1cccc(Cl)c1`: the MIC in experiment [1] came to 62.5 µg/mL (≈ 184 µM); in experiment [2] it was 31.2 µg/mL (≈ 91.8 µM); in experiment [3], 31.2 µg/mL (≈ 91.8 µM); in experiment [4], 31.2 µg/mL (≈ 91.8 µM); in experiment [5], 31.2 µg/mL (≈ 91.8 µM); in experiment [6] it was 31.2 µg/mL (≈ 91.8 µM).

With `O=C(NNC(=S)Nc1ccc(F)cc1)c1cccc(Cl)c1`, the MIC in experiment [1], in experiment [2], in experiment [3], in experiment [4], in experiment [5] and in experiment [6] was > 1000 µg/mL throughout.

As to `O=C(NNC(=S)Nc1cc(F)ccc1F)c1cccc(Cl)c1`, the minimum inhibitory concentration (MIC) was 125 µg/mL (≈ 366 µM) in experiment [1]; 125 µg/mL (≈ 366 µM) in experiment [2]; 62.5 µg/mL (≈ 183 µM) in experiment [3]; 125 µg/mL (≈ 366 µM) in experiment [4]; 62.5 µg/mL (≈ 183 µM) in experiment [5]; 62.5 µg/mL (≈ 183 µM) in experiment [6].

For the molecule `O=C(NNC(=S)Nc1c(F)cccc1F)c1cccc(Cl)c1`, the MIC in experiment [1] worked out at 250 µg/mL (≈ 731 µM); in experiment [2] it was 250 µg/mL (≈ 731 µM); in experiment [3], 250 µg/mL (≈ 731 µM); in experiment [4] it was 250 µg/mL (≈ 731 µM); in experiment [5], 250 µg/mL (≈ 731 µM); in experiment [6] it was 125 µg/mL (≈ 366 µM).

As for `S=c1[nH]nc(-c2cccc(Cl)c2)n1-c1ccccc1`, the MIC is > 1000 µg/mL in experiment [1]; > 1000 µg/mL in experiment [2]; > 1000 µg/mL in experiment [3]; 125 µg/mL (≈ 434 µM) in experiment [4]; > 1000 µg/mL in experiment [5]; > 1000 µg/mL in experiment [6].

Values taken from ChEMBL document CHEMBL1649393, “Synthesis and antimicrobial activity of thiosemicarbazides, s-triazoles and their Mannich bases bearing 3-chlorophenyl moiety” (2011).
